From PMC6100082, “Pyridine-Ureas as Potential Anticancer Agents: Synthesis and In Vitro Biological Evaluation” (Molecules : A Journal of Synthetic Chemistry and Natural …, 2018)

Columns and labels:
CCRF-CEM = experiment: NCI one-dose SRB assay (Leukemia); assay type: cell-based, human; details: for Growth Percent: 1.00E-5 Molar
Procedure: (§1) The structures of all the newly prepared pyridine-ureas 8a–n were submitted to the National Cancer Institute (NCI) Developmental Therapeutic Program. Eight compounds 8b, 8d, 8e, 8i, 8j and 8l–n were selected to be examined for their in vitro growth inhibitory activity. The anticancer assays were carried out according to the protocol of the Drug Evaluation Branch, NCI, Bethesda. The selected pyridine-ureas were tested at one dose primary anticancer assay against a panel of approximately 58 cancer lines (concentration 10^−5 M). The tested human cancer cell lines emerged from nine different cancer subtypes: leukemia, colon, melanoma, ovarian, lung, CNS, renal, breast and prostate cancers. The sulforhodamine B (SRB) protein assay was adopted to estimate the cell viability and growth. The results were reported as mean-graph of the percentage growth of the treated cells, and presented as percentage growth inhibition (GI%) caused by the test compounds (Table 2).
(§2) The anticancer assays were performed in accordance with the protocol of the Drug Evaluation Branch, NCI, Bethesda. A 48 h drug exposure protocol was used and sulforhodamine B (SRB) protein assay was applied to estimate the cell viability and growth, as reported earlier.

HL-60(TB) = experiment: NCI one-dose SRB assay (Leukemia); assay type: cell-based, human; details: for Growth Percent: 1.00E-5 Molar
Procedure: as §1, §2

K-562 = experiment: NCI one-dose SRB assay (Leukemia); assay type: cell-based, human; details: for Growth Percent: K-562, 1.00E-5 Molar
Procedure: as §1, §2

MOLT-4 = experiment: NCI one-dose SRB assay (Leukemia); assay type: cell-based, human; details: for Growth Percent: MOLT-4, 1.00E-5 Molar
Procedure: as §1, §2

RPMI-8226 = experiment: NCI one-dose SRB assay (Leukemia); assay type: cell-based, human; details: for Growth Percent: RPMI-8226, 1.00E-5 Molar
Procedure: as §1, §2

SR = experiment: NCI one-dose SRB assay (Leukemia); assay type: cell-based, human; details: for Growth Percent: 1.00E-5 Molar
Procedure: as §1, §2

A549/ATCC = experiment: NCI one-dose SRB assay (Non-Small Cell Lung Cancer); assay type: cell-based, human; details: for Growth Percent: 1.00E-5 Molar
Procedure: as §1, §2

EKVX = experiment: as above; assay type: cell-based, human; details: for Growth Percent: 1.00E-5 Molar
Procedure: as §1, §2

HOP-62 = experiment: as above; assay type: cell-based, human; details: for Growth Percent: HOP-62, 1.00E-5 Molar
Procedure: as §1, §2

HOP-92 = experiment: as above; assay type: cell-based, human; details: for Growth Percent: HOP-92, 1.00E-5 Molar
Procedure: as §1, §2

NCI-H226 = experiment: as above; assay type: cell-based, human; details: for Growth Percent: NCI-H226, 1.00E-5 Molar
Procedure: as §1, §2

NCI-H23 = experiment: as above; assay type: cell-based, human; details: for Growth Percent: NCI-H23, 1.00E-5 Molar
Procedure: as §1, §2

NCI-H322M = experiment: as above; assay type: cell-based, human; details: for Growth Percent: 1.00E-5 Molar
Procedure: as §1, §2

NCI-H460 = experiment: as above; assay type: cell-based, human; details: for Growth Percent: NCI-H460, 1.00E-5 Molar
Procedure: as §1, §2

NCI-H522 = experiment: as above; assay type: cell-based, human; details: for Growth Percent: NCI-H522, 1.00E-5 Molar
Procedure: as §1, §2

LOX IMVI = experiment: NCI one-dose SRB assay (Melanoma); assay type: cell-based, human; details: for Growth Percent: 1.00E-5 Molar
Procedure: as §1, §2

M14 = experiment: NCI one-dose SRB assay (Melanoma); assay type: cell-based, human; details: for Growth Percent: M14, 1.00E-5 Molar
Procedure: as §1, §2

MALME-3M = experiment: NCI one-dose SRB assay (Melanoma); assay type: cell-based, human; details: for Growth Percent: 1.00E-5 Molar
Procedure: as §1, §2

MDA-MB-435 = experiment: NCI one-dose SRB assay (Melanoma); assay type: cell-based, human; details: for Growth Percent: MDA-MB-435, 1.00E-5 Molar
Procedure: as §1, §2

SK-MEL-28 = experiment: NCI one-dose SRB assay (Melanoma); assay type: cell-based, human; details: for Growth Percent: SK-MEL-28, 1.00E-5 Molar
Procedure: as §1, §2

SK-MEL-2 = experiment: NCI one-dose SRB assay (Melanoma); assay type: cell-based, human; details: for Growth Percent: SK-MEL-2, 1.00E-5 Molar
Procedure: as §1, §2

SK-MEL-5 = experiment: NCI one-dose SRB assay (Melanoma); assay type: cell-based, human; details: for Growth Percent: SK-MEL-5, 1.00E-5 Molar
Procedure: as §1, §2

UACC-257 = experiment: NCI one-dose SRB assay (Melanoma); assay type: cell-based, human; details: for Growth Percent: UACC-257, 1.00E-5 Molar
Procedure: as §1, §2

UACC-62 = experiment: NCI one-dose SRB assay (Melanoma); assay type: cell-based, human; details: for Growth Percent: UACC-62, 1.00E-5 Molar
Procedure: as §1, §2

[1] = Homo sapiens, 10 μM, read-out: Percentage growth inhibition (GI%)

1-(4-Chloro-4-(trifluoromethyl)cyclohexa-2,5-dien-1-yl)-3-(6-(3,4-dimethoxyphenyl)-2-methylpyridin-3-yl)urea [Compound 8l]
Percentage growth inhibition (GI%) (CCRF-CEM; 10 μM): 45%
Growth Percent (CCRF-CEM): 55.04%
Percentage growth inhibition (GI%) (HL-60(TB); 10 μM): 48%
Growth Percent (HL-60(TB)): 52.58%
Percentage growth inhibition (GI%) (K-562; K-562, 10 μM): 51%
Growth Percent (K-562): 49.47%
Percentage growth inhibition (GI%) (MOLT-4; MOLT-4, 10 μM): 57%
Growth Percent (MOLT-4): 43.68%
Percentage growth inhibition (GI%) (RPMI-8226; RPMI-8226, 10 μM): 57%
Growth Percent (RPMI-8226): 43.88%
Percentage growth inhibition (GI%) (SR; 10 μM): 40%
Growth Percent (SR): 60.09%
Percentage growth inhibition (GI%) (A549/ATCC; 10 μM): 56%
Growth Percent (A549/ATCC): 44.62%
Percentage growth inhibition (GI%) (EKVX; 10 μM): 33%
Growth Percent (EKVX): 67.30%
Percentage growth inhibition (GI%) (HOP-62; HOP-62, 10 μM): 23%
Growth Percent (HOP-62): 77.10%
Percentage growth inhibition (GI%) (HOP-92; HOP-92, 10 μM): 30%
Growth Percent (HOP-92): 70.53%
Percentage growth inhibition (GI%) (NCI-H226; NCI-H226, 10 μM): 28%
Growth Percent (NCI-H226): 72.73%
Percentage growth inhibition (GI%) (NCI-H23; NCI-H23, 10 μM): 29%
Growth Percent (NCI-H23): 71.36%
Percentage growth inhibition (GI%) (NCI-H322M; 10 μM): 13%
Growth Percent (NCI-H322M): 87.05%
Percentage growth inhibition (GI%) (NCI-H460; NCI-H460, 10 μM): 48%
Growth Percent (NCI-H460): 52.19%
Percentage growth inhibition (GI%) (NCI-H522; NCI-H522, 10 μM): 57%
Growth Percent (NCI-H522): 43.02%
Percentage growth inhibition (GI%) (LOX IMVI; 10 μM): 22%
Growth Percent (LOX IMVI): 78.57%
Percentage growth inhibition (GI%) (M14; M14, 10 μM): 53%
Growth Percent (M14): 47.02%
Percentage growth inhibition (GI%) (MALME-3M; 10 μM): 10%
Growth Percent (MALME-3M): 90.89%
Percentage growth inhibition (GI%) (MDA-MB-435; MDA-MB-435, 10 μM): 23%
Growth Percent (MDA-MB-435): 77.84%
Percentage growth inhibition (GI%) (SK-MEL-28; SK-MEL-28, 10 μM): 27%
Growth Percent (SK-MEL-28): 73.58%
Percentage growth inhibition (GI%) (SK-MEL-2; SK-MEL-2, 10 μM): 13%
Growth Percent (SK-MEL-2): 87.87%
Percentage growth inhibition (GI%) (SK-MEL-5; SK-MEL-5, 10 μM): 37%
Growth Percent (SK-MEL-5): 63.85%
Percentage growth inhibition (GI%) (UACC-257; UACC-257, 10 μM): 44%
Growth Percent (UACC-257): 56.26%
Percentage growth inhibition (GI%) (UACC-62; UACC-62, 10 μM): 23%
Growth Percent (UACC-62): 77.31%

COc1ccc(-c2ccc(NC(=O)Nc3cccc(C(F)(F)F)c3)c(C)n2)cc1 [Compound 8b, 1-(6-(4-Methoxyphenyl)-2-methylpyridin-3-yl)-3-(3-(trifluoromethyl)phenyl) Urea]
Growth Percent (CCRF-CEM): 42.94%
inhibition at 10 µM (CCRF-CEM; [1]): 58%
Growth Percent (HL-60(TB)): 49.75%
inhibition at 10 µM (HL-60(TB); [1]): 51%
inhibition at 10 µM (K-562; Homo sapiens, K562, K-562, 10 μM, read-out: Percentage growth inhibition (GI%)): 68%
Growth Percent (K-562): 32.55%
inhibition at 10 µM (MOLT-4; Homo sapiens, MOLT-4, 10 μM, read-out: Percentage growth inhibition (GI%)): 67%
Growth Percent (MOLT-4): 33.74%
inhibition at 10 µM (RPMI-8226; Homo sapiens, RPMI-8226, 10 μM, read-out: Percentage growth inhibition (GI%)): 78%
Growth Percent (RPMI-8226): 22.58%
Growth Percent (SR): 36.30%
inhibition at 10 µM (SR; [1]): 64%
Growth Percent (A549/ATCC): 42.47%
inhibition at 10 µM (A549/ATCC; [1]): 58%
Growth Percent (EKVX): 41.42%
inhibition at 10 µM (EKVX; [1]): 59%
Growth Percent (HOP-62): 67.99%
inhibition at 10 µM (HOP-62; Homo sapiens, HOP-62, 10 μM, read-out: Percentage growth inhibition (GI%)): 33%
Growth Percent (HOP-92): 68.79%
inhibition at 10 µM (HOP-92; Homo sapiens, HOP-92, 10 μM, read-out: Percentage growth inhibition (GI%)): 32%
inhibition at 10 µM (NCI-H226; Homo sapiens, NCI-H226, 10 μM, read-out: Percentage growth inhibition (GI%)): 42%
Growth Percent (NCI-H226): 58.09%
inhibition at 10 µM (NCI-H23; Homo sapiens, NCI-H23, 10 μM, read-out: Percentage growth inhibition (GI%)): 53%
Growth Percent (NCI-H23): 47.63%
Growth Percent (NCI-H322M): 64.44%
inhibition at 10 µM (NCI-H322M; [1]): 36%
inhibition at 10 µM (NCI-H460; Homo sapiens, NCI-H460, 10 μM, read-out: Percentage growth inhibition (GI%)): 52%
Growth Percent (NCI-H460): 48.67%
inhibition at 10 µM (NCI-H522; Homo sapiens, NCI-H522, 10 μM, read-out: Percentage growth inhibition (GI%)): 72%
Growth Percent (NCI-H522): 28.48%
Growth Percent (LOX IMVI): 47.72%
inhibition at 10 µM (LOX IMVI; [1]): 53%
inhibition at 10 µM (M14; Homo sapiens, M14, 10 μM, read-out: Percentage growth inhibition (GI%)): 63%
Growth Percent (M14): 37.25%
Growth Percent (MALME-3M): 90.58%
inhibition at 10 µM (MALME-3M; [1]): 10%
inhibition at 10 µM (MDA-MB-435; Homo sapiens, MDA-MB-435, 10 μM, read-out: Percentage growth inhibition (GI%)): 31%
Growth Percent (MDA-MB-435): 69.59%
inhibition at 10 µM (SK-MEL-28; Homo sapiens, SK-MEL-28, 10 μM, read-out: Percentage growth inhibition (GI%)): 31%
Growth Percent (SK-MEL-28): 69.29%
inhibition at 10 µM (SK-MEL-2; Homo sapiens, SK-MEL-2, 10 μM, read-out: Percentage growth inhibition (GI%)): 25%
Growth Percent (SK-MEL-2): 75.95%
inhibition at 10 µM (SK-MEL-5; Homo sapiens, SK-MEL-5, 10 μM, read-out: Percentage growth inhibition (GI%)): 59%
Growth Percent (SK-MEL-5): 41.63%
inhibition at 10 µM (UACC-257; Homo sapiens, UACC-257, 10 μM, read-out: Percentage growth inhibition (GI%)): 39%
Growth Percent (UACC-257): 61.43%
inhibition at 10 µM (UACC-62; Homo sapiens, UACC-62, 10 μM, read-out: Percentage growth inhibition (GI%)): 37%
Growth Percent (UACC-62): 63.91%
melting point: 189 to 191 °C
